Literature values in patent US12263217B2, “Nucleic acid stabilizing solution for vaccines, therapy, diagnostics, storage, and transport” (Daykin Molecular Systems, LLC, priority 2020, dated 2025).

tris(hydroxymethyl)aminomethane
doses well tolerated (in vivo): 3.6 grams/50 kg body weight | doses clinically used (parenteral): up to 500 mg/kg weight
